Values joined by “and” are separate entries in the source; they are usually repeats but may differ in a detail not shown here. Identical values can stand only once. After the bases stand the sugars from the 5' end (letter, count) and the backbone: PS all phosphorothioate, else s phosphorothioate and o phosphodiester by linkage. Methylation of C is not given here. e = 2'-O-(2-methoxyethyl) (MOE); k = constrained ethyl (cEt); d = 2'-deoxy (DNA)
Biological target: IRF4
Conditions: ASO

Sequence | target mRNA inhibition (SK-MEL-28, 4 µM) | target mRNA inhibition (MM.1R, 1 µM) | other results
CCTCCTTTAGTGTCGC (sugars k3 d10 k3, PS) | 65% | – | –
ACCTACTCCATCACTT (sugars k3 d10 k3, PS) | -3% | – | –
GTCAAAGAGCTTGCAG (sugars k3 d10 k3, PS) | 44% | – | –
GTTGGCTGGTCTTTGT (sugars kkdddddddddkdkdk, PS) | – | 56% | –
ACATAAAGGACCCCGC (sugars k3 d10 k3, PS) | 28% | – | –
CTCTTACTCCGCTGAG (sugars k3 d10 k3, PS) | -5% | – | –
CTACCTCAGTTTGTGA (sugars k3 d10 k3, PS) | 41% | – | –
ATACTGTAAGGGCTGC (sugars k3 d10 k3, PS) | 54% | – | –
GTGATGTCAGGTTTTC (sugars kddddddddddkekek, PS) | – | 22% | –
TAGTAAGTTCTAGTCG (sugars k3 d10 k3, PS) | – | -13% | –
AAAACAGTAAGAGGGC (sugars k3 d10 k3, PS) | 39% | – | –
AGTTGTAAATGAGTCG (sugars kdddddddddkekeke, PS) | – | 47% | –
CTGCTTGAGGTTTTCC (sugars kkdddddddddkdkdk, PS) | – | 36% | –
GGGCACCCCGCCCCGA (sugars k3 d10 k3, PS) | 1% | – | –
CTGTAACTGACTAACA (sugars k3 d10 k3, PS) | 23% | – | –
AGCTGAGCTGATCATC (sugars k3 d10 k3, PS) | 56% | – | –
ACGTGTGCTTGCCAAG (sugars k3 d10 k3, PS) | – | 54% and 55% | –
CCGTAGTCAGCTCCAT (sugars k3 d10 k3, PS) | 73% | – | –
TCAACCTGGAAGGATG (sugars k3 d10 k3, PS) | 30% | – | –
CAAGACATAAACCAAG (sugars k3 d10 k3, PS) | 51% | – | –
TTCTTTATAGTAGGTA (sugars k3 d10 k3, PS) | – | 15% | –
TTCAAAGCGCACCGCA (sugars k3 d10 k3, PS) | 49% | – | –

Sequence | target mRNA inhibition (SK-MEL-28, 4 µM) | target mRNA inhibition (MM.1R, 1 µM) | other results
GCACGCAAGGCTCGGA (sugars k3 d10 k3, PS) | – | 7% | –
ATTGAAATGGAGCATC (sugars k3 d10 k3, PS) | -1% | – | –
GGCAGCACCGTGTGGA (sugars k3 d10 k3, PS) | 53% | – | –
CACTGTTAAAGCAGCA (sugars k3 d10 k3, PS) | 81% | – | –
CCCATCTGTCTCAGTT (sugars k3 d10 k3, PS) | 66% | – | –
CTGTAGTATGAGAAAC (sugars k3 d10 k3, PS) | 45% | – | –
AACCACAAGCAGTGAT (sugars k3 d10 k3, PS) | 17% | – | –
CGGGTCTGAGATGTCC (sugars k3 d10 k3, PS) | – | -2% | –
TAAGGCACTACTTCCA (sugars k3 d10 k3, PS) | – | 10% | –
GCCGGCCTGGCCCTTC (sugars k3 d10 k3, PS) | -14% | – | –
GAGGGTCTGGAAACTC (sugars k3 d10 k3, PS) | -4% | – | –
CCAGAGGACCACGCCC (sugars k3 d10 k3, PS) | 28% | – | –
TTGGAAACCAGCCCTT (sugars k3 d10 k3, PS) | 39% | – | –
ACAGAGGACTTCGGGA (sugars k3 d10 k3, PS) | -36% | – | –
ACGGAAGTTTACACTG (sugars kdddddddddkekeke, PS) | – | 2% | –
CCTTACCTCGCCCTGG (sugars k3 d10 k3, PS) | – | -31% | –
AAACATCCAAAGGGTT (sugars k3 d10 k3, PS) | – | -1% | –
CTGGCTCCGCTCAACC (sugars k3 d10 k3, PS) | 52% | – | –
GCTAACTGGCCTCAAA (sugars k3 d10 k3, PS) | 9% | – | –
TCCTTTAAACAGTGCC (sugars k3 d10 k3, PS) | 50% | – | –
TGTCACCTGGCAACCA (sugars k3 d10 k3, PS) | 9% | – | –
GACTGGAACATTGTTG (sugars k3 d10 k3, PS) | – | -41% | –

Sequence | target mRNA inhibition (SK-MEL-28, 4 µM) | target mRNA inhibition (MM.1R, 1 µM) | other results
GCCCAGCTAGCGCGCA (sugars k3 d10 k3, PS) | 29% | – | –
GACATATTTGCTTTGG (sugars k3 d10 k3, PS) | 58% | – | –
GATTATATACTGGTTG (sugars kkdddddddddkekek, PS) | – | 45% | –
CTTGCCGCTGTCGATC (sugars k3 d10 k3, PS) | 25% | – | –
GACCATGTTACACTTT (sugars k3 d10 k3, PS) | 50% | – | –
GGCACAGACATACCTA (sugars k3 d10 k3, PS) | 48% | – | –
GAACAGATAGTTAAGT (sugars k3 d10 k3, PS) | 17% | – | –
CGTTCCTTTTCAGAGT (sugars k3 d10 k3, PS) | 30% | – | –
TGCTTGAGGTTTTCCT (sugars kdddddddddkekeke, PS) | – | 9% | –
CCGCAGCATCGAACTC (sugars k3 d10 k3, PS) | 42% | – | –
TCACAAGCTGGGCCTT (sugars k3 d10 k3, PS) | 30% | – | –
GGCCTTAATGGTGATT (sugars k3 d10 k3, PS) | – | -16% | –
TAGTAAATATCCTGTA (sugars k3 d10 k3, PS) | 42% | – | –
AAAGAAGCAAGTCGGT (sugars k3 d10 k3, PS) | – | -2% | –
TCCATAGATCAACATG (sugars k3 d10 k3, PS) | 45% | – | –
GAGCTGCTTGGCTCCT (sugars k3 d10 k3, PS) | 19% | – | –
GGGCAGGTTTCATTTC (sugars k3 d10 k3, PS) | 32% | – | –
CAAGAACTGCTGTGTG (sugars k3 d10 k3, PS) | -5% | – | –
TTCCAGTGGTGGGTCC (sugars k3 d10 k3, PS) | 29% | – | –
GAATGGCGAGTTGGCA (sugars k3 d10 k3, PS) | – | 39% and 40% | –
CTATTATAGAGCATCA (sugars k3 d10 k3, PS) | 55% | – | –
CTATATAAAAAGTGGG (sugars k3 d10 k3, PS) | 16% | – | –

Sequence | target mRNA inhibition (SK-MEL-28, 4 µM) | target mRNA inhibition (MM.1R, 1 µM) | other results
GCAGTGATGTCAGGTT (sugars kdddddddddkekeke, PS) | – | 33% | –
TTAAGAGGCGACTGCT (sugars k3 d10 k3, PS) | 12% | – | –
GCCAAGTTGAAGACAC (sugars k3 d10 k3, PS) | 57% | – | –
TCAGTTTGTGAAGCAT (sugars e1 k2 d9 k2 e2, PS) | – | 47% | –
GTTAAAGGAGTGCAGG (sugars k3 d10 k3, PS) | -14% | – | –
TTGGTTGGCTGGTCTT (sugars kkddddddddddkeke, PS) | – | 27% | –
TCAGTTTGTGAAGCAT (sugars kkdddddddddkdkdk, PS) | – | 25% | –
TACCATGCATAGTGAT (sugars k3 d10 k3, PS) | 44% | – | –
GGTTGGCTGGTCTTTG (sugars k2 d9 e3 k2, PS) | – | 69% and 65% | target mRNA inhibition (MM.1R, 0.0625 µM): 44%; target mRNA inhibition (MM.1R, 0.25 µM): 52%; target mRNA inhibition (MM.1R, 4 µM): 84%
TCAGGGAATCCCTTAT (sugars k3 d10 k3, PS) | – | 4% | –
CTGGAGAGCAATGAAC (sugars k3 d10 k3, PS) | 67% | – | –
TCCAAAGCATAGAGTC (sugars k3 d10 k3, PS) | 53% | – | –
CTTGATAAAGGCTGAA (sugars kkdddddddddekeke, PS) | – | 19% | –
CGCCTTAATGTTCAGC (sugars k3 d10 k3, PS) | 66% | – | –
CAAGACCTAATCTACA (sugars k3 d10 k3, PS) | 12% | – | –
AGGCACATCAATGTTT (sugars kkddddddddddkeke, PS) | – | 16% and 14% | –
GGACCTGGTCCAGGTT (sugars k4 d8 k4, PS) | -28% | – | –
ACTATAATTGGCACGA (sugars k3 d10 k3, PS) | 69% | – | target mRNA inhibition (SK-MEL-28, 0.185 µM): 6%; target mRNA inhibition (SK-MEL-28, 5 µM): 72%; target mRNA inhibition (SK-MEL-28, 15 µM): 90%
GTGAACATGCCACTCA (sugars k3 d10 k3, PS) | 62% | – | –
CAAAAGGTAGTAGACC (sugars k3 d10 k3, PS) | – | 11% | –
GAGAAAACTCCTGAGT (sugars k3 d10 k3, PS) | 5% | – | –
GAATGCTCTCCATCAA (sugars k3 d10 k3, PS) | 45% | – | –

Sequence | target mRNA inhibition (SK-MEL-28, 4 µM) | target mRNA inhibition (MM.1R, 1 µM) | other results
TCTTCTGGATTGCTGA (sugars k3 d10 k3, PS) | – | 20% | –
CAGATTAATAGTAAGT (sugars k3 d10 k3, PS) | – | -12% | –
TGTGAACATCTCAGAT (sugars k3 d10 k3, PS) | 12% | – | –
TCCAGATGCAGATTCC (sugars k3 d10 k3, PS) | 46% | – | –
GTTTGCCATGGTATTT (sugars k3 d10 k3, PS) | – | 41% and 50% | –
GCAGAAGCTGGTTGGC (sugars k3 d10 k3, PS) | 58% | – | –
ACCTGAATAGGAAGAT (sugars k3 d10 k3, PS) | 31% | – | –
CCTCAAAGCTGTGAAA (sugars k3 d10 k3, PS) | 20% | – | –
TCGAATCTGCCCAAAG (sugars k3 d10 k3, PS) | – | 23% | –
AATAAACACCCCTTCT (sugars k3 d10 k3, PS) | 21% | – | –
AGTAGCTGGGCCCTCG (sugars k3 d10 k3, PS) | 62% | – | –
ATGTAAGTGATAGGTA (sugars k3 d10 k3, PS) | 70% | – | –
AACGAGCCAGTGCACA (sugars k3 d10 k3, PS) | – | -1% | –
CCACGAAGATTCAAAA (sugars k3 d10 k3, PS) | – | -7% | –
GCCACATTAGCAATTA (sugars k3 d10 k3, PS) | 8% | – | –
CACATCAATGTTTTAG (sugars kkdddddddddkdkdk, PS) | – | 28% and 37% | –
TGATAGCTGAGCTGAT (sugars kkdddddddddekeke, PS) | – | 15% | –
AGGTTCCTGTCACCTG (sugars k3 d10 k3, PS) | – | -7% | –
CAAGTGTCTAAAGTCC (sugars kkdddddddddekeke, PS) | – | 23% and 25% | –

Reference: the OligoGym collection
